Experiment [1] deals with T1, Aurora kinase C (Homo sapiens) (UniProt Q9UQB9).
T1 sequence (whole entry): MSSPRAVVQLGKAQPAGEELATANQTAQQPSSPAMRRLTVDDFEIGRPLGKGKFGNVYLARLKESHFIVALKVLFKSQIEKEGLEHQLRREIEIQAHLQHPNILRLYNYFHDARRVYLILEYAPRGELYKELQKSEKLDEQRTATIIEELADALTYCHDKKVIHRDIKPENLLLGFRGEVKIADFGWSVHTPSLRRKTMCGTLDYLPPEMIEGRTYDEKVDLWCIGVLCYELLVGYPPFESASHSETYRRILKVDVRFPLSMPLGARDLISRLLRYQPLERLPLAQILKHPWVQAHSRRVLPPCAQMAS
In words: Percentage Aurora C activity remaining in the presence of 3uM inhibitor.

In experiment [2] the target is Cyclin-dependent kinase 2/cyclin A (Homo sapiens) (UniProt P24941+P20248+P78396). In words: Percentage CDK2-cyclinA activity remaining in the presence of 3uM inhibitor. Type of experiment: protein-complex assay.
The target in experiment [3] is Maternal embryonic leucine zipper kinase (Homo sapiens) (UniProt Q14680). In words: Percentage MELK activity remaining in the presence of 3uM inhibitor.
The target in experiment [4] is Serine/threonine-protein kinase PLK1 (Homo sapiens, UniProt P53350). In words: Percentage PLK1 activity remaining in the presence of 3uM inhibitor.
Experiment [5] has as its target Dual specificity mitogen-activated protein kinase kinase 1 (Homo sapiens) (UniProt Q02750). In words: Percentage MKK1 activity remaining in the presence of 3uM inhibitor.
Experiment [6] concerns the target Serine/threonine-protein kinase PAK 6 (Homo sapiens) (UniProt Q9NQU5). In words: Percentage PAK6 activity remaining in the presence of 3uM inhibitor.
Another experiment has as its target Aurora kinase B (Homo sapiens, UniProt Q96GD4). In words: Percentage Aurora B activity remaining in the presence of 3uM inhibitor.
In experiment [7] the target is Protein kinase C alpha type (Homo sapiens) (UniProt P17252). Description: Percentage PKCalpha activity remaining in the presence of 3uM inhibitor.
Experiment [8] addresses Casein kinase I isoform delta (Homo sapiens, UniProt P48730). Description: Percentage CK1delta activity remaining in the presence of 3uM inhibitor.
Experiment [9] has as its target Serine/threonine-protein kinase N2 (Homo sapiens) (UniProt Q16513). In words: Percentage PRK2 activity remaining in the presence of 3uM inhibitor.
The target of experiment [10] is T2, Inhibitor of nuclear factor kappa-B kinase subunit beta (Homo sapiens) (UniProt O14920).
T2 sequence (whole entry): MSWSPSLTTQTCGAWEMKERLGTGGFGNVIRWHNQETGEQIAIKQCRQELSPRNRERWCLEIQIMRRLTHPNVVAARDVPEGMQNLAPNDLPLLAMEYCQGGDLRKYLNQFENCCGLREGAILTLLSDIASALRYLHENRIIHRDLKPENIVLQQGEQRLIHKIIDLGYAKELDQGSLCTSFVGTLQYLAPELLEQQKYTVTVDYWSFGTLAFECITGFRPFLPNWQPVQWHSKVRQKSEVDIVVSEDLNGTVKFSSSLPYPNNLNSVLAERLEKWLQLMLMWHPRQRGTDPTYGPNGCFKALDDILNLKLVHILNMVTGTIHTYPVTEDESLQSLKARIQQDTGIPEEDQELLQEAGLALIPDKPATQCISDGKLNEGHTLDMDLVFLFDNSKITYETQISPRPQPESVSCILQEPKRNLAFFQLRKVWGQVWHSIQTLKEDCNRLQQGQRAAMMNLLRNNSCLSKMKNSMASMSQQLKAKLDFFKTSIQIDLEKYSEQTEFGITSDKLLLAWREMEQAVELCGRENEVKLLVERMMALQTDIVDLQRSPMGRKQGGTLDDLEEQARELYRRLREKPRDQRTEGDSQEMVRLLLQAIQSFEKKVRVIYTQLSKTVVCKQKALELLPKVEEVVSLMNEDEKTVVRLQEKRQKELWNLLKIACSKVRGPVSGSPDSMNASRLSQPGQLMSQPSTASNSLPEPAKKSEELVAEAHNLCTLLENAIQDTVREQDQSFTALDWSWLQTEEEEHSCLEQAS
Description: Percentage IKK-beta activity remaining in the presence of 2uM inhibitor.

Experiment [11] addresses Mitogen-activated protein kinase 14 (Homo sapiens, UniProt Q16539). In words: Percentage p38alpha activity remaining in the presence of 2uM inhibitor.
In experiment [12] the target is T3, Protein kinase C zeta type (Homo sapiens) (UniProt Q05513).
T3 sequence (whole entry): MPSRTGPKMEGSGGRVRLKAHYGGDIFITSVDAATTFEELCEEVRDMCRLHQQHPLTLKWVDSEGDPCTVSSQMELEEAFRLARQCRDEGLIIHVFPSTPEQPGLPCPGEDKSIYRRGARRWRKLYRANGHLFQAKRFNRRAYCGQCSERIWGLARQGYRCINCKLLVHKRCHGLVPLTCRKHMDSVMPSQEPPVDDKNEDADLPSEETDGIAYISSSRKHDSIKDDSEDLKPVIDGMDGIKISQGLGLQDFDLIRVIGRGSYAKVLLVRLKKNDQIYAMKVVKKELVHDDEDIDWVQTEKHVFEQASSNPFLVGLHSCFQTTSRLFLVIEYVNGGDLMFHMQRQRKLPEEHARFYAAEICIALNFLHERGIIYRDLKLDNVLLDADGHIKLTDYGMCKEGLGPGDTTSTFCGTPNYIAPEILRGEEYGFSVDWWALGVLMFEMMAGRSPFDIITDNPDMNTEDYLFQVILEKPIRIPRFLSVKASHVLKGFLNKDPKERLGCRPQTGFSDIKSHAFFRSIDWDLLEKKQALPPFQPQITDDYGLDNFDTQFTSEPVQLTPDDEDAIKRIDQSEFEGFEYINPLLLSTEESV
In words: Percentage PKCzeta activity remaining in the presence of 2uM inhibitor.

The target of experiment [13] is RAC-beta serine/threonine-protein kinase (Homo sapiens) (UniProt P31751). Description: Percentage PKBbeta activity remaining in the presence of 2uM inhibitor.
Chain of RAC-beta serine/threonine-protein kinase (Homo sapiens) (P31751 whole entry): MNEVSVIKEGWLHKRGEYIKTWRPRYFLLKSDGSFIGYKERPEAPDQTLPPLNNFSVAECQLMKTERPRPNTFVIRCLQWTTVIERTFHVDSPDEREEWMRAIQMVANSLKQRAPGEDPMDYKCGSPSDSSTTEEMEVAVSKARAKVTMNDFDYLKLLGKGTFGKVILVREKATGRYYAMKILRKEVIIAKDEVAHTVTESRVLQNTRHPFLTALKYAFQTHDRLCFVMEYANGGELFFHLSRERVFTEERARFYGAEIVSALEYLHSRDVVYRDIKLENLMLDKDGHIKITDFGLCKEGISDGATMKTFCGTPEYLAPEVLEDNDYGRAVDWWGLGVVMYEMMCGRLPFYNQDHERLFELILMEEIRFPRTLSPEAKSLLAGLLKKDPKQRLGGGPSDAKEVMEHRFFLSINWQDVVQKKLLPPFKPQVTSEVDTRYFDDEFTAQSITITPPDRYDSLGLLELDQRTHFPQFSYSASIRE
The target of experiment [14] is Serine/threonine-protein kinase Chk2 (Homo sapiens) (UniProt O96017). In words: Percentage CHK2 activity remaining in the presence of 2uM inhibitor.
Chain of Serine/threonine-protein kinase Chk2 (Homo sapiens) (O96017 whole entry): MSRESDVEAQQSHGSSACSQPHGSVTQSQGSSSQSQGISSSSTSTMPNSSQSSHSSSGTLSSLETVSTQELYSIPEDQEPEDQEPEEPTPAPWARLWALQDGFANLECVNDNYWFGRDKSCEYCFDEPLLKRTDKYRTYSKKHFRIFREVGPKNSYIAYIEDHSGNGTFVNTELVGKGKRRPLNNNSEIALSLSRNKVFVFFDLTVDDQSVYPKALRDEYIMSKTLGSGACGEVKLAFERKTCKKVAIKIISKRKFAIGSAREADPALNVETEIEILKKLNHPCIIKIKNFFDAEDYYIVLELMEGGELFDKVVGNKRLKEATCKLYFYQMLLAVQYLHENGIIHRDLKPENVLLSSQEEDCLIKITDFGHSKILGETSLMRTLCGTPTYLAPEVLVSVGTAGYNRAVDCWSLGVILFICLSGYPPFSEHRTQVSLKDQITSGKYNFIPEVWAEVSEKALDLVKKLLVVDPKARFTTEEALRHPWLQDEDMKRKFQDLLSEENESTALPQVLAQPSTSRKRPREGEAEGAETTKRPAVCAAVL
Experiment [15] addresses Dual specificity mitogen-activated protein kinase kinase 1 (Homo sapiens) (UniProt Q02750). In words: Percentage MKK1 activity remaining in the presence of 2uM inhibitor.
Experiment [16] has as its target RAC-alpha serine/threonine-protein kinase (Homo sapiens) (UniProt P31749). In words: Percentage PKBalpha activity remaining in the presence of 2uM inhibitor.
The target in experiment [17] is Rho-associated protein kinase 2 (Homo sapiens) (UniProt O75116). In words: Percentage ROCK2 activity remaining in the presence of 2uM inhibitor.

Chain of Dual specificity mitogen-activated protein kinase kinase 1 (Homo sapiens) (Q02750 whole entry): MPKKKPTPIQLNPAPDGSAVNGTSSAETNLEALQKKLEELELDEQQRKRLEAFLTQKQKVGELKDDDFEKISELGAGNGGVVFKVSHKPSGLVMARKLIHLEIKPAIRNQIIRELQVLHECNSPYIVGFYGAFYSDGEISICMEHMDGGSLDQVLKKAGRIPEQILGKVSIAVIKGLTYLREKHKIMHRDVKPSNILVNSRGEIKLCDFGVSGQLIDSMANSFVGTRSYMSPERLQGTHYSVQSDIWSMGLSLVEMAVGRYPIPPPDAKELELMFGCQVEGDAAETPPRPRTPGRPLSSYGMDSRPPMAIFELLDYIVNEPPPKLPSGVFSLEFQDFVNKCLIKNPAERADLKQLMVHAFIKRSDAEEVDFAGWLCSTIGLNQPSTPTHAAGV
Chain of Mitogen-activated protein kinase 14 (Q16539 whole entry): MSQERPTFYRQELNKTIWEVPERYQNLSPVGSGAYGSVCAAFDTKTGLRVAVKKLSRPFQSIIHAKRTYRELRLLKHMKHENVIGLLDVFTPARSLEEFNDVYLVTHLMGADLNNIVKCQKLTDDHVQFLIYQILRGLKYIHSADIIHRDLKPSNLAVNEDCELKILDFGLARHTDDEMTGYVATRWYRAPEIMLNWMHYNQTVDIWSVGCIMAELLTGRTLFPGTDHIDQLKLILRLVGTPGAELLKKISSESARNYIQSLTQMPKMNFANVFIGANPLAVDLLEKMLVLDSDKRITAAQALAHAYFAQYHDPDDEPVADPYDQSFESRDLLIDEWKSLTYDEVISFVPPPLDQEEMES
Chain of Serine/threonine-protein kinase N2 (Homo sapiens) (Q16513 whole entry, looked up): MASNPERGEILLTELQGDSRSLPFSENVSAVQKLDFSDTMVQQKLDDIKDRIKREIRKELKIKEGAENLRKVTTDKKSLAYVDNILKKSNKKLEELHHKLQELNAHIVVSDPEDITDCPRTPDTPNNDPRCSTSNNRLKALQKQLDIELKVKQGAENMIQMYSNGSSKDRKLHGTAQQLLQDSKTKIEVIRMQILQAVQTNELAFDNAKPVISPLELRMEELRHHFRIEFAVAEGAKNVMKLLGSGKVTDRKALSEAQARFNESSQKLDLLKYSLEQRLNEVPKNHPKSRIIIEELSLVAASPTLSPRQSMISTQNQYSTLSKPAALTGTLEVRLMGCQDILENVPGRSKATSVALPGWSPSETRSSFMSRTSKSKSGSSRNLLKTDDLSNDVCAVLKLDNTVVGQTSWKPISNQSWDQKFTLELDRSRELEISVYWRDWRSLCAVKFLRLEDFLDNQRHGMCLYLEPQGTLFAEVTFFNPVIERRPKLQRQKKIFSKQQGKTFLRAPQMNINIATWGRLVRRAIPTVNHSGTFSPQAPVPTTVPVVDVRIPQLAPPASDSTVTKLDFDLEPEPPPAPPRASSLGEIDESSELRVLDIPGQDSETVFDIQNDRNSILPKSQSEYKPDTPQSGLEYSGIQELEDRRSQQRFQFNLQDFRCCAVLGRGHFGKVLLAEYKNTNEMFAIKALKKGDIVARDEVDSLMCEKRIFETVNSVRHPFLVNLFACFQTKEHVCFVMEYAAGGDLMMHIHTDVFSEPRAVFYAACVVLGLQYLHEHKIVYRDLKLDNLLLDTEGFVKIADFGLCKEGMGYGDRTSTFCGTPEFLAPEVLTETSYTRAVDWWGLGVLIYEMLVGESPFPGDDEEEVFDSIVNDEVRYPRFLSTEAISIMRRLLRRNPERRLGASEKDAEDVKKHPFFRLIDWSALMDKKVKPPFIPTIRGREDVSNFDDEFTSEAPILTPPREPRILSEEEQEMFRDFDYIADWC
Chain of Aurora kinase B (Q96GD4 whole entry): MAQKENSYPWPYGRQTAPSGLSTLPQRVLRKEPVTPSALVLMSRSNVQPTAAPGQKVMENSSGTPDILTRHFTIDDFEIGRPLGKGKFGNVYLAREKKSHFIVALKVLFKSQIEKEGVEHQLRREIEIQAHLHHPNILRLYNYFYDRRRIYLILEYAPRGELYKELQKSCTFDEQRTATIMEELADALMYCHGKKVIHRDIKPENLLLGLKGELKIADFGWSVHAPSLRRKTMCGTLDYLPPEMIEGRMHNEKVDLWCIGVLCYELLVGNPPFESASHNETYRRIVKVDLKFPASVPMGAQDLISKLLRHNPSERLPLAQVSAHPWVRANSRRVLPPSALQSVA
Chain of RAC-alpha serine/threonine-protein kinase (Homo sapiens) (P31749 whole entry): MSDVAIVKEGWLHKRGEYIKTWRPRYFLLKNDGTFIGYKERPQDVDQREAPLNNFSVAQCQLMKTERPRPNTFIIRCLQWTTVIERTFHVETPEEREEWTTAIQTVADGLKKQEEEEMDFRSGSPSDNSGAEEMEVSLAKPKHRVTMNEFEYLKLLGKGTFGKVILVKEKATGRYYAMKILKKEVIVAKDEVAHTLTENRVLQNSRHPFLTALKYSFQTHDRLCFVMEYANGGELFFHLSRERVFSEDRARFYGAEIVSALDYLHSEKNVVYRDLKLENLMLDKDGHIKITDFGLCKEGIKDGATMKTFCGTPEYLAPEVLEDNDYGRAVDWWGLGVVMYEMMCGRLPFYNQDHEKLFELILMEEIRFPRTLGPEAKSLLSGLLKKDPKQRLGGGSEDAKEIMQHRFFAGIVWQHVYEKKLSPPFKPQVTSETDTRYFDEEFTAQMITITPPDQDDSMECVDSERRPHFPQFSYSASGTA
Chain of Serine/threonine-protein kinase PAK 6 (Homo sapiens) (Q9NQU5 whole entry, looked up): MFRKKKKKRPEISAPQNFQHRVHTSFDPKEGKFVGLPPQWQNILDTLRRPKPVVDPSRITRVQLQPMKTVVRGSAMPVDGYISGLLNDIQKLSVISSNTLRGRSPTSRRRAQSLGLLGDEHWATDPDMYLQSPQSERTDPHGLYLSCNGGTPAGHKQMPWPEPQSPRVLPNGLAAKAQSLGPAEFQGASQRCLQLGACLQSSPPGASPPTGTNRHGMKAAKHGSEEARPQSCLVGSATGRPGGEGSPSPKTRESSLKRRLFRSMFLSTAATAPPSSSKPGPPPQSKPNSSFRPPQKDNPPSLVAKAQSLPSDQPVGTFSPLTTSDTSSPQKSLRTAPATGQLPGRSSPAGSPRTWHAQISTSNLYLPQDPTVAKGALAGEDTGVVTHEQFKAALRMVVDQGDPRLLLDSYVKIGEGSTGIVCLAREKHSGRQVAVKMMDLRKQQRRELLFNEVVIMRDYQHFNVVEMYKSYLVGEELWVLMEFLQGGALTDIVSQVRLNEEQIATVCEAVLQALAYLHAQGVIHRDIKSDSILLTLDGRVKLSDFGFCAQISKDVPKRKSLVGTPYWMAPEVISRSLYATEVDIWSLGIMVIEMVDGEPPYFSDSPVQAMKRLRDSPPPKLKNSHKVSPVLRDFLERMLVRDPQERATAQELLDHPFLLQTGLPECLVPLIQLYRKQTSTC

On to `Cc1ccc(-c2c(C(=O)CF)n(CCCO)c3ncnc(N)c23)cc1`, for which the Activity in experiment [1] was 75%; in experiment [2] it was 80%; in [3], 65%; in experiment [4], 82%; in [5] it was 80%; in [6], 93%. Moreover, the Activity on Aurora kinase B was found to be 59%; in [7] it was 85%; in experiment [8], 63%; in experiment [9] it was 83%.
On to `Cn1cc(C2=C(c3ccc(Cl)cc3Cl)C(=O)NC2=O)c2ccccc21`, for which the Activity worked out at 99% in experiment [10]; 77% in [11]; 81% in experiment [12]; 96% in [13]; 93% in [14]; 71% in experiment [15]. Besides, the Activity worked out at 88% in experiment [16] and 101% in experiment [17].

For the origin of these results see ChEMBL document CHEMBL1150976, “The selectivity of protein kinase inhibitors: a further update” (Biochem J, 2007).
